Data on eight molecules can be found in paper PMC9502374, “Enzymatic and Molecular Characterization of Anti-Leishmania Molecules That Differently Target Leishmania and Mammalian eIF4A Proteins, LieIF4A and eIF4AMus” (Molecules, 2022).

Data set [1] relates to intramacrophage amastigotes of L. donovani (LV9). Details: method as in PMID 16949702. Particulars: cited from earlier work.
For data set [2], the system named is L. infantum promastigotes (LV50). In words: MTT viability assay on promastigotes. Type of data set: cell-based, Leishmania infantum. The conditions noted are these: for IC50: Leishmania infantum, stationary phase promastigotes, 24 h. As to the method:
The MON1 L. infantum laboratory strain LV50 originating from a visceral leishmaniasis case (Laboratory of Molecular Epidemiology and Experimental Pathology, Institut Pasteur de Tunis) was used to test the effect of the chemical compounds. Promastigote cultures were inoculated in RPMI-1640 media supplemented with 2 mM L-glutamine, 100 U/mL penicillin, 100 U/mL streptomycin and 10% (v/v) heat-inactivated fetal bovine serum at 22 °C. Promastigotes were collected at the beginning of the stationary phase (day 5), counted, centrifuged and seeded at 10^6/mL in 10 mL of complete media.
The effect of the chemical compounds on the viability of L. infantum promastigotes was evaluated by a colorimetric MTT (3-(4,5-dimethylthiazol-2yl)-2,5-diphenyl tetrazolium bromide) 96-well plate assay as previously described in [7]. This test consisted of a reduction of tetrazolium salt to a […] crystal (blue formazan) by the succinate dehydrogenase activity of mitochondria in living cells, which can be quantified by spectrophotometry. Briefly, 90 μL of LV50 promastigotes harvested from the stationary growth phase of 10^6/mL culture were added to a 96-well culture plate with various concentrations of the selected compounds to obtain a final volume of 100 µL, compound concentrations of 1.5–100 μM, and a final concentration of 1% DMSO per well. Plates were incubated at 25 °C for 24 h.
(§1) Mock-treated THP-1-derived macrophages and promastigotes (1% DMSO) were used as controls. After 24 h of incubation, MTT solution was added at 1 mg/mL to each well and incubated at the appropriate cell temperatures for 4 h. Then, 150 μL of DMSO was added to each well to dissolve the blue formazan, and the optical density (OD) was measured at 560 nm with a microplate reader (MULTISCAN, Labsystems, Thermo Fisher Scientific, Ratastie, Finland).
The promastigotes and THP-1-derived macrophage viabilities were expressed as the percentage of the viable promastigotes or cells in treated conditions relative to the 1% DMSO cultures, as previously described in [7]. […]
A general note: Tetrazolium dyes change colour on reduction, which living cells bring about.

The target of data set [3] is T1, LieIF4A (Leishmania infantum, UniProt A4HRK0).
T1 construct: His6; made in house; host or cells: Escherichia coli Rosetta
T1 sequence (A4HRK0 1-403): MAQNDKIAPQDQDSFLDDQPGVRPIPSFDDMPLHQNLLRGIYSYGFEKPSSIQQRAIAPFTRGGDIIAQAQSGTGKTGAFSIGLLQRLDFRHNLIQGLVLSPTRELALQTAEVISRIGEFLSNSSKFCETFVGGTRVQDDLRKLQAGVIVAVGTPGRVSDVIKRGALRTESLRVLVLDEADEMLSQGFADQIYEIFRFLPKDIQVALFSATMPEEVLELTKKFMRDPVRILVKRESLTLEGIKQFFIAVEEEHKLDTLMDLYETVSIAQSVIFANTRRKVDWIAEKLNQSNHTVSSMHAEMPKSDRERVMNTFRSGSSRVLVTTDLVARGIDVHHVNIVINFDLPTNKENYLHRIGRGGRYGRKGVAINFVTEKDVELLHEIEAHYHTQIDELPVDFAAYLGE
Particulars: cited from earlier work; for Ki: ATPase kinetics, calculated from data in ref 7; for IC50: read-out: LieIF4A ATPase assay IC50.

Data set [4] has as its target T2, eIF4AMus (Mus musculus, UniProt P60843).
T2 construct: His6; made in house; host or cells: Escherichia coli Rosetta
Further details: method as in PMID 29346371. Particulars: ATPase kinetics, calculated from data in ref 7, cited from earlier work.

In data set [5] the test system is THP-1-derived macrophages. Nature of the data set: MTT cytotoxicity assay on macrophages. The conditions noted are these: MTT, 24 h; read-out: Uninfected THP-1-Derived Macrophages CC50. Type of data set: cell-based, human. As for the experimental part: (§2) The human myelomonocytic cell line, THP-1, was ordered from the American Type Culture Collection (ATCC, TIB-202). Cells were maintained in RPMI 1640/Glutamax-I media (Gibco BRL, Bleiswijk, The Netherlands) supplemented with 10% heat-inactivated fetal calf serum (Gibco, Bleiswijk, The Netherlands) plus penicillin G (100 U/mL) and streptomycin ([…]). THP-1 cells were differentiated to macrophages after their treatment with 20 ng/mL phorbol […] (PMA) (Sigma, St. Louis, MO, USA) for 48 h at 37 °C, 5% CO2. The viability of THP-1 mature macrophage-like cells was determined to be >97% by the Trypan blue dye exclusion assay.
(§3) For the cytotoxicity assay, we used the THP-1-derived macrophages (50,000 cells/well) seeded in 96-well plates and treated with serial concentrations of compounds at the same conditions as for the promastigotes for 24 h.
as §1
(§4) The promastigotes and THP-1-derived macrophage viabilities were expressed as the percentage of the viable promastigotes or cells in treated conditions relative to the 1% DMSO cultures, as previously described in [7]. The half maximal inhibitory concentration (IC50) and 50% cytotoxic concentrations (CC50) values were calculated for all the tested compounds by interpolation.

The nature of data set [6]: MTT cytotoxicity assay on macrophages. Type of data set: cell-based, human. The conditions noted are these: human. As for the experimental part: as §2, §3, §1, §4
Data set [7] concerns L. infantum promastigotes (LV50). Details: method as in PMID 29346371. The conditions noted are these: cited from earlier work.
The subject of data set [8] is THP-1-derived macrophages. The conditions noted are these: cited from earlier work.
The target in data set [9] is T2, eIF4AMus. Nature of the data set: RNA-dependent ATPase assay (Malachite green), eIF4AMus. Type of data set: biochemical. As for the experimental part: (§5) A colorimetric assay was used to measure the phosphate released during ATP hydrolysis based on Malachite green, as previously described in [8, 9]. Reactions were performed at 37 °C in 96 well microtiter plates in a final volume of 50 μL. The reaction buffer contained 50 mM potassium acetate, 20 mM MES pH 6, 2 mM dithiothreitol (DTT), 0.1 mg/mL BSA and various concentrations of whole yeast RNA (Type XI-C, Sigma-Aldrich, St. Louis, MO, USA). 5 mM and 1 mM magnesium acetate were added to the LieIF4A and eIF4AMus reactions, respectively. Reactions were initiated by adding ATP; when not noted otherwise, the ATP concentration used was 1 mM. Reactions were stopped after various times with ethylenediaminetetraacetic acid (EDTA, final concentration 60 mM). The absorption at 630 nm was converted to phosphate concentration by a reference curve generated from a dilution series of a known phosphate concentration (0.1 mM Pi standard; Innova Biosciences, Cambridge, UK). Reaction velocities were determined by a linear regression fit of the phosphate generated against time. Only the initial linear phases of the curves were used. Velocities were determined for three independent experiments for each reaction condition. The Michaelis –Menten (Km) and the inhibition kinetics (Ki) constants were obtained by nonlinear regression using GraphPad Prism 8 (GraphPad Software).

Data set [10] deals with T1, LieIF4A. Nature of the data set: RNA-dependent ATPase assay (Malachite green), LieIF4A. The class given is biochemical. As for the experimental part: as §5
In data set [11] the test system is L. infantum promastigotes. Further details: method as in PMID 21417924. Particulars: cited from earlier work.
[12] abbreviates: L. infantum, read-out: Anti-leishmanial activity IC50.

“And” between values parts separate entries of the source, which are not always exact repeats. Equal values may be shown once. Read-outs that look alike come from different tables or passages of the source. A value given as a limit tells only on which side of the number the result lay.

T2 sequence (P60843 whole entry): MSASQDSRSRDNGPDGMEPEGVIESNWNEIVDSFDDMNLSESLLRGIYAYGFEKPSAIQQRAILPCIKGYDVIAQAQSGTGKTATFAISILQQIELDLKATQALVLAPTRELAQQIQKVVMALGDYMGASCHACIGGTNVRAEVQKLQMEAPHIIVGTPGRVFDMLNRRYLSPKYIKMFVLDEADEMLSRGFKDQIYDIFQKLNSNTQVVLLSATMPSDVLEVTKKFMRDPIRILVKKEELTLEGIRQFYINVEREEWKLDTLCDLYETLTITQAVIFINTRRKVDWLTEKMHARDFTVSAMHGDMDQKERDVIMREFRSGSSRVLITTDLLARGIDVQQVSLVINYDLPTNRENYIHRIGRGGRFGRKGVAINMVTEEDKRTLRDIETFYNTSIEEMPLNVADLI

Broadly, the IC50 is the concentration that gives 50% inhibition. 7-α/β-aminocholesterol: the IC50 in [1] was 1.3 µM.
What is called Ki is a dissociation constant, usually derived from enzyme kinetics or from competition with a known ligand. Take `CC(C)CCC[C@@H](C)[C@H]1CC[C@H]2[C@@H]3CC(=O)[C@H]4C[C@@H](O)CC[C@]4(C)[C@H]3CC[C@]12C` [6-ketocholestanol]: the IC50 was 37 ± 6.6 µM in [2], more than 1000 µM at LieIF4A [3] and 39.1 µM in data set [7] (setting [12]). For the same molecule, the Ki was 316 ± 80.7 µM on LieIF4A [3] and 485 ± 94.5 µM at eIF4AMus [4]. Further, the CC50 in [5] is 76.9 ± 2.1 µM. Moreover, the CC50 at 24 h in data set [6] (THP-1-derived macrophages (PMA-differentiated, uninfected), MTT, 24 h, read-out: Uninfected THP-1-Derived Macrophages CC50) came out at 77 µM.
Regarding `CC(C)CCC[C@@H](C)[C@H]1CC[C@H]2[C@@H]3C[C@H](N)[C@H]4C[C@@H](O)CC[C@]4(C)[C@H]3CC[C@]12C` [6-α-aminocholestanol], the inhibition constant Ki on LieIF4A [3] was 19.5 ± 3.27 µM; at eIF4AMus [4] (read-out: Ki), 20.2 µM. Also, the IC50 is 160 µM at LieIF4A [3]; 3.6 µM in data set [7] (setting [12]); 3.64 ± 0.1 µM in data set [7] (MTT, measured using data in ref 7, read-out: Promastigotes LV50 IC50). Also, in data set [8], the CC50 is 35.2 ± 1.3 µM.
As to `CC(C)CCC[C@@H](C)[C@H]1CC[C@H]2[C@@H]3[C@H](N)C=C4C[C@@H](O)CC[C@]4(C)[C@H]3CC[C@]12C` [7-α-aminocholesterol], the Ki is 80.5 µM on eIF4AMus [9] (ATPase kinetics, saturating yRNA); 8.6 µM and 8.57 µM at LieIF4A [10] (Ki, ATPase kinetics, saturating yRNA). In addition, the IC50 in [2] is 2.29 ± 0.4 µM; in data set [1], 1.31 µM. The “Higher affinity (Ki) for LieIF4A than for eIF4AMus” value on LieIF4A [10] (Ki eIF4AMus / Ki LieIF4A) is on record as ~ 9.4 fold. Moreover, the CC50 at 24 h in data set [6] (Uninfected THP-1-Derived Macrophages CC50) turned out to be 17.5 ± 3.4 µM.
For the molecule `CC(C)CCC[C@@H](C)[C@H]1CC[C@H]2[C@@H]3[C@@H](CN)C=C4C[C@@H](O)CC[C@]4(C)[C@H]3CC[C@]12C` [7-β-aminomethylcholesterol], in [1], the concentration for half-maximal inhibition (IC50) is 1.3 µM.
Usually Km stands for the substrate concentration at which the rate is half of its maximum. For `Nc1ncnc2c1ncn2[C@@H]1O[C@H](COP(=O)(O)OP(=O)(O)OP(=O)(O)O)[C@@H](O)[C@H]1O` [ATP], the Km at LieIF4A [3] (saturating total yeast RNA, control DMSO, no test compound, read-out: Km (ATP hydrolysis)) is 150 ± 20 µM.
On to `CC(C)CCC[C@@H](C)[C@H]1CC[C@H]2[C@@H]3CC=C4C[C@@H](O)CC[C@]4(C)[C@H]3CC[C@]12C` [Cholesterol], for which the “Effect on ATPase kinetics” value at eIF4AMus [9] (300 µM compound) and at LieIF4A [10] (300 µM compound) was “no effect” each time. The “Effect on promastigotes viability” value in data set [2] (24 h exposure) is “no effect”.
For orientation: EC50 means the concentration needed to bring the measured effect to its halfway point. Consider `COc1ccc([C@@]23Oc4cc(OC)cc(OC)c4[C@]2(O)[C@H](O)[C@H](C(=O)N(C)C)[C@H]3c2ccccc2)cc1` [Rocaglamide A], for which the “Increase of ATPase activity” value at eIF4AMus [9] (50 µM rocaglamide A vs no compound, 55 ng/µL yRNA) is reported as 6.2 fold; on LieIF4A [10] (50 µM rocaglamide A vs no compound, 1 ng/µL yRNA), 1.7 fold. The “Relative activity (to maximum velocity of eIF4AMus without rocaglamide A)” value stood at 2.65 ± 0.03 at eIF4AMus [9] (50 µM rocaglamide A, 55 ng/µL yRNA) and 0.80 ± 0.07 at LieIF4A [10] (50 µM rocaglamide A, 1 ng/µL yRNA). Besides, the “ATPase activity with compound relative to saturating RNA without compound (more)” value at eIF4AMus [9] (50 µM rocaglamide A, 55 ng/µL yRNA vs 340 ng/µL yRNA) is given as approximately 2.7 fold. Also, the “V (ATPase reaction velocity)” value on eIF4AMus [9] (50 µM rocaglamide A, 55 ng/µL yRNA, 1 mM ATP, 1200 nM protein, 10% DMSO) was determined as 2.55 ± 0.03 µM/min; at LieIF4A [10] (50 µM rocaglamide A, 1 ng/µL yRNA, 1 mM ATP, 820 nM protein, 10% DMSO), 0.77 ± 0.07 µM/min. For the same molecule, in [11], the EC50 is 16.5 µM. Further, at LieIF4A [10] (50 µM rocaglamide A, 1 ng/µL yRNA vs 340 ng/µL yRNA), the “ATPase activity with compound relative to saturating RNA without compound (less)” value was determined as 2.3 fold.
